The subject of assay [1] is IL-10 secretion in primary bone marrow-derived dendritic cells (BMDCs). The assay can be described thus: IL-10 cytokine secretion assay (ELISA) in Zymosan-stimulated primary BMDCs. As to conditions: murine BMDCs, inhibitor 30 min before Zymosan stimulation. It is filed as cell-based, mouse. How it is done: A subsequent full dose–response experiment confirmed potent and selective binding to SYK ( Kdapp = 58 nM, […] = 0.60; Extended Data Fig. 5a,b). […] One of the effects of Zymosan is that it activates Dectin-1 signaling, in turn activating SYK and leading to increased IL-10 cytokine production (Fig. 3c)[34]. Treatment of cells with the respective SYK inhibitors before Zymosan stimulation indeed led to decreased levels of IL-10 in a dose-dependent fashion (Fig. 3d). […] In line with the cytokine readout, we observed a dose depended reduction of pTyr525/526 indicating SYK inhibition in live cells (Fig. 3e and Extended Data Fig. 5c).
Primary BMDCs were obtained from 9-week-old C57BL/6 mice that were maintained under standard specific pathogen-free conditions. BMDCs were differentiated for 7 days in Roswell Park Memorial Institute medium (Gibco) and granulocyte-macrophage colony-stimulating factor. On day seven, BMDCs were seeded in 96-well plates at 10^5 cells per well in 100 µl of culture medium followed by incubation for 4 h at 37 °C. Subsequently, cells were incubated with SYK inhibitors for 30 min followed by stimulation with Zymosan (final concentration of 50 µg ml^−1; Invivogen) and dispersed in culture medium for 24 h. […] For cytokine secretion quantification, cell culture medium was collected and concentrations of IL-10 in the supernatant were determined using mouse enzyme-linked immunosorbent assay kits (IL-10: Invitrogen) according to the manufacturer’s protocol. Experiments were performed in biological triplicates.

The next assay has as its target T1, FRK (Homo sapiens, UniProt P42685).
T1 construct: endogenous in cells
The assay can be described thus: Kinobeads two-dose competition binding: FRK. The conditions noted are these: read-out: Lestaurtinib Drugmatrix value, Gene Name FRK; target FRK; each column = one Lestaurtinib control replicate (batch_R1-R3).

In another assay the test system is ERCC2. Briefly: Kinobeads two-dose competition binding: ERCC2. As to conditions: read-out: Lestaurtinib Drugmatrix value, Gene Name ERCC2; target ERCC2; each column = one Lestaurtinib control replicate (batch_R1-R3). Also noted: species or system human.
The target of the next assay is T2, NTRK1 (Homo sapiens, UniProt P04629).
T2 construct: endogenous in cells
Briefly: Kinobeads competition binding, Lestaurtinib control replicates: NTRK1. As to conditions: read-out: Lestaurtinib Drugmatrix value, NTRK1; Gene Name NTRK1; one column per experiment number and replicate (R1-R3).

The target in the next assay is T3, EPHB3 (Homo sapiens, UniProt P54753).
T3 construct: endogenous in cells
T3 sequence (P54753 34-998): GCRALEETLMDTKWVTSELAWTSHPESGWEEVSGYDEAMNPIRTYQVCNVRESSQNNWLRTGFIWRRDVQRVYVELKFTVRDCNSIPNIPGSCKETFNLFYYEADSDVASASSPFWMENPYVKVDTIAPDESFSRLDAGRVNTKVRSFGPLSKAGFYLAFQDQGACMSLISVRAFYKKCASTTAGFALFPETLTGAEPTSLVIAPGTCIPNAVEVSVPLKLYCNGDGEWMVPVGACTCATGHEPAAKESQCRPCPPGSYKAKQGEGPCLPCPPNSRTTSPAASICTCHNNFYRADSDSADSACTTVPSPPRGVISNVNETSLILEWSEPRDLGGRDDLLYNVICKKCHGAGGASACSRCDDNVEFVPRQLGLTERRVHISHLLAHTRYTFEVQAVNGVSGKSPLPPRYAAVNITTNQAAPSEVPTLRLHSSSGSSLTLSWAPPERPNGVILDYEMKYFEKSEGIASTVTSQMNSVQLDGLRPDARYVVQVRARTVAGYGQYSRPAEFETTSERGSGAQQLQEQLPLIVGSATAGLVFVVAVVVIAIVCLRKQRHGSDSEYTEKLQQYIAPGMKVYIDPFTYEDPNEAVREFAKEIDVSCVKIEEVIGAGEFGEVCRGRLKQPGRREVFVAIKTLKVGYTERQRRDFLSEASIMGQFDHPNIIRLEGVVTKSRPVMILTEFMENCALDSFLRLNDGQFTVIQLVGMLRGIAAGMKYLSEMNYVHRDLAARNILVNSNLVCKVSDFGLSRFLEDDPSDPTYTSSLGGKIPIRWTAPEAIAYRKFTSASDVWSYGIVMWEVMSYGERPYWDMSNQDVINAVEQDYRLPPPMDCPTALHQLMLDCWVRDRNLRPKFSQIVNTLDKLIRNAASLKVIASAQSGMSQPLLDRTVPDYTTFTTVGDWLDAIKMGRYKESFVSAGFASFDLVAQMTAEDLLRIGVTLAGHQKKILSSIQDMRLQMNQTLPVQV
The assay can be described thus: Kinobeads two-dose competition binding: EPHB3. The conditions noted are these: read-out: Lestaurtinib Drugmatrix value, Gene Name EPHB3.

A further assay concerns the target T4, ULK1 (Homo sapiens, UniProt O75385).
T4 construct: to maximize the representation of endogenous proteins; endogenous in cells
Briefly: Kinobeads two-dose competition binding: ULK1. The conditions noted are these: read-out: Lestaurtinib Drugmatrix value, Gene Name ULK1; repeated control pulldowns; each column = experiment id and replicate (Lestaurtinib_02339_R1 ... Lestaurtinib_03260_R3).

In a further assay the target is T5, BUB1 (Homo sapiens, UniProt O43683).
T5 construct: endogenous in cells
The assay can be described thus: Kinobeads two-dose competition binding: BUB1. The conditions noted are these: read-out: Lestaurtinib Drugmatrix value, Gene Name BUB1.

For the next assay, the target named is T6, AURKB (Homo sapiens, UniProt Q96GD4).
T6 construct: endogenous in cells
Briefly: Kinobeads two-dose competition binding: AURKB. As to conditions: read-out: Lestaurtinib Drugmatrix value, Gene Name AURKB.

The next assay concerns the target T7, EPHA5 (Homo sapiens, UniProt P54756).
T7 construct: endogenous in cells
Briefly: Kinobeads two-dose competition binding: EPHA5. As to conditions: read-out: Lestaurtinib Drugmatrix value, Gene Name EPHA5.

Another assay concerns the target T8, PRKACB (Homo sapiens, UniProt P22694).
T8 construct: endogenous in cells
The assay can be described thus: Kinobeads full dose-response competition binding: PRKACB. The conditions noted are these: Gene Name PRKACB.

The next assay has as its target T9, PRKACA (Homo sapiens, UniProt P17612).
T9 construct: a mixture of lysates from five cancer cell lines; endogenous in cells
The assay can be described thus: Kinobeads full dose-response competition binding: PRKACA. As to conditions: Gene Name PRKACA.

Setting [2] is: EC50 with Correction, doses in nM, read-out: apparent Kd.
The mark [3] stands for this setting: eight-dose curve fit, doses in nM.

Values joined by “and” are separate entries in the source; they are usually repeats but may differ in a detail not shown here. Equal values may be shown once.

Broadly, the EC50 is the concentration needed to bring the measured effect to its halfway point. Read a high EC50 as a less potent agent.

T6 sequence (Q96GD4 whole entry): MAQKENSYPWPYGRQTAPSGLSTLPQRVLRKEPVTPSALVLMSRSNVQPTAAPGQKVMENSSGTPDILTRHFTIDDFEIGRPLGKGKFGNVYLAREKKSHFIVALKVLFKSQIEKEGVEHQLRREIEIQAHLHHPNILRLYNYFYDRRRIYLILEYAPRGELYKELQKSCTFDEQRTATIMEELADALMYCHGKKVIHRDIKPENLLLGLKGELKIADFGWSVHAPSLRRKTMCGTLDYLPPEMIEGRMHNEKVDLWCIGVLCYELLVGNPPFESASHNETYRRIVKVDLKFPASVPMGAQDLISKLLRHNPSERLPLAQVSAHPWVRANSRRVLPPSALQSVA
T2 sequence (P04629 33-796): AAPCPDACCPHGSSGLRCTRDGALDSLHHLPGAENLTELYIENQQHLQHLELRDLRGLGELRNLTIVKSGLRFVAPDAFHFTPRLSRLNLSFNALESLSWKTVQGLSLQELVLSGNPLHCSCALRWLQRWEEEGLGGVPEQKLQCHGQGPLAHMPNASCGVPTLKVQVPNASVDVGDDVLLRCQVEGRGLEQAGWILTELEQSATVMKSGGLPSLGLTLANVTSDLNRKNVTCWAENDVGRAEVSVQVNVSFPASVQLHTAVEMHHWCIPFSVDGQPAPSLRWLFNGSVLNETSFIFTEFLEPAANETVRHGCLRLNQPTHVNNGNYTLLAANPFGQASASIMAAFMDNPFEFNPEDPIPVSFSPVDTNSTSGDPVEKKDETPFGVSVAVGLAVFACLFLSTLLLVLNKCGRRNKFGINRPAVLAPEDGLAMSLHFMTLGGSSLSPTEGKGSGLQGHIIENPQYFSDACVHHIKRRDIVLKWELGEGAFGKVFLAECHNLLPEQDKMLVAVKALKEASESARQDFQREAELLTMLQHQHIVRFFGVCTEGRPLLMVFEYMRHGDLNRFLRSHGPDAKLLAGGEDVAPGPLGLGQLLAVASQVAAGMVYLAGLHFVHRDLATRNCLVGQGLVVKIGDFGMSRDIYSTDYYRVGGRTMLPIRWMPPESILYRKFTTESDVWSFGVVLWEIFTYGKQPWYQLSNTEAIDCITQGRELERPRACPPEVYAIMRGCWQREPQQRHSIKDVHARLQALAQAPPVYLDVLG
T1 sequence (P42685 whole entry): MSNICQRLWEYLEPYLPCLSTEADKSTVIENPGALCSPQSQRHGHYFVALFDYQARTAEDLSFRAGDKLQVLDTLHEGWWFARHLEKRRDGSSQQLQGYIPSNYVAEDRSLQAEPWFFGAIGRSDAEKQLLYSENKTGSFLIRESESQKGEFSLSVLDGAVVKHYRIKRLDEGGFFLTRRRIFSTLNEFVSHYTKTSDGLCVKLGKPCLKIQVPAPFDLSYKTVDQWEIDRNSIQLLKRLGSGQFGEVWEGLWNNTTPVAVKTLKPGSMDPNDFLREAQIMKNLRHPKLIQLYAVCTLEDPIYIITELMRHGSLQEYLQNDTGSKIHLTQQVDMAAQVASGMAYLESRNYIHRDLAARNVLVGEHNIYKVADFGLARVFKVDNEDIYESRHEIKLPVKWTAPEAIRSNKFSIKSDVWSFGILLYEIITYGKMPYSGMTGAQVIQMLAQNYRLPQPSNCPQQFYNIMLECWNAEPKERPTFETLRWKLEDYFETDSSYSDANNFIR
T5 sequence (O43683 whole entry): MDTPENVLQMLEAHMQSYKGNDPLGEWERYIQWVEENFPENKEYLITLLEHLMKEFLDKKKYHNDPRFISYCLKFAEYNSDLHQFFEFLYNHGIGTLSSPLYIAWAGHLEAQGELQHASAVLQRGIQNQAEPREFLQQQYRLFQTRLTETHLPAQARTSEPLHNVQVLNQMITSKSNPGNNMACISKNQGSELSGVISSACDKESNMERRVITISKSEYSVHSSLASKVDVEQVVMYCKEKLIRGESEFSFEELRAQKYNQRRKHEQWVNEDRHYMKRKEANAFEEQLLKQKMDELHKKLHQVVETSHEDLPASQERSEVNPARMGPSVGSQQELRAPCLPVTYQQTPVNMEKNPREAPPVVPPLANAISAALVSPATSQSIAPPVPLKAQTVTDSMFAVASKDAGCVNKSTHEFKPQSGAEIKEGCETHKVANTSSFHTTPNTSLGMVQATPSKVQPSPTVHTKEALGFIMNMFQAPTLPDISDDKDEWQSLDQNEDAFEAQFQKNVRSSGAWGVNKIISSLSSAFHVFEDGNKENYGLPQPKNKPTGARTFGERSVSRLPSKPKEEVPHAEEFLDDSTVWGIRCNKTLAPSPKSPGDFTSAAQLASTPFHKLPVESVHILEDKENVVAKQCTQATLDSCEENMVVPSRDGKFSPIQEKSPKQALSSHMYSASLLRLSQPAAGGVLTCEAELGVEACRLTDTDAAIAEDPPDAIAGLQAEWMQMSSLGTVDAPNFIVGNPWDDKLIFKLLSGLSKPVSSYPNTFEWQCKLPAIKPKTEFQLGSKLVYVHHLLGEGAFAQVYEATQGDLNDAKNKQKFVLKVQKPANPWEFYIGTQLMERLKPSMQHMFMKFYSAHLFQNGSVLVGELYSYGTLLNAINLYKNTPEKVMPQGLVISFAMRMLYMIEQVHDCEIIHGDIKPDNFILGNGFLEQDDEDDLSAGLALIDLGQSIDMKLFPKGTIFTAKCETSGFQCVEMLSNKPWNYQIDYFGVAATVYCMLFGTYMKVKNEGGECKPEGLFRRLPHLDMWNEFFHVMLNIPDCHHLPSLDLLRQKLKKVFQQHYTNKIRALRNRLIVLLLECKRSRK
T4 sequence (O75385 whole entry): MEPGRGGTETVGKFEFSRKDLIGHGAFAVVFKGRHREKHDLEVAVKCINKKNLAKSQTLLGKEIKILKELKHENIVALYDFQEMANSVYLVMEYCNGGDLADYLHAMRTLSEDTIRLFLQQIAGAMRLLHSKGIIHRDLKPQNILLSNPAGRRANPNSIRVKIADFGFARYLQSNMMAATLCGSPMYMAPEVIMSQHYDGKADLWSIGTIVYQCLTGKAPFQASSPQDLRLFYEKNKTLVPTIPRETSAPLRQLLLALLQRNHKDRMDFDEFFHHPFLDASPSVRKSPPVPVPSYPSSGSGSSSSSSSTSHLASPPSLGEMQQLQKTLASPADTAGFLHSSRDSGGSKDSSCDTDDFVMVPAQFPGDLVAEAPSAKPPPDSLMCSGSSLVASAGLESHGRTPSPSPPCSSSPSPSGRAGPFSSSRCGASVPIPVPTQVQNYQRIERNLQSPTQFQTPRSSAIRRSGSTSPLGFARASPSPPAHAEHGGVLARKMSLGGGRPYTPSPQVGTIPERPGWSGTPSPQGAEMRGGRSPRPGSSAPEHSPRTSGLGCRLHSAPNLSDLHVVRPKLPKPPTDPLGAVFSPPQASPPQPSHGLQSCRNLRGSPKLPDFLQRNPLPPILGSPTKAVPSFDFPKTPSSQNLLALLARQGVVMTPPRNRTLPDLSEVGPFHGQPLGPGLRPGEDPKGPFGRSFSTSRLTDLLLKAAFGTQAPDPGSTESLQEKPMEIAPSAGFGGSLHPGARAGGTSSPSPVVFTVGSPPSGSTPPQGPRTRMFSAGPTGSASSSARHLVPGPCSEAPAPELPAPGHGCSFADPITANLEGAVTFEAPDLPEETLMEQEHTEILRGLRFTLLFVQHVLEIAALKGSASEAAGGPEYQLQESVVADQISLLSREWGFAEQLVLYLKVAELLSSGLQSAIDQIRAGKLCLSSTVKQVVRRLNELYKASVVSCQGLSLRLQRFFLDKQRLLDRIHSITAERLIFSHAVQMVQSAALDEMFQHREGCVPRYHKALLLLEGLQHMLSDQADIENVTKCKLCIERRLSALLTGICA
T7 sequence (P54756 25-1037): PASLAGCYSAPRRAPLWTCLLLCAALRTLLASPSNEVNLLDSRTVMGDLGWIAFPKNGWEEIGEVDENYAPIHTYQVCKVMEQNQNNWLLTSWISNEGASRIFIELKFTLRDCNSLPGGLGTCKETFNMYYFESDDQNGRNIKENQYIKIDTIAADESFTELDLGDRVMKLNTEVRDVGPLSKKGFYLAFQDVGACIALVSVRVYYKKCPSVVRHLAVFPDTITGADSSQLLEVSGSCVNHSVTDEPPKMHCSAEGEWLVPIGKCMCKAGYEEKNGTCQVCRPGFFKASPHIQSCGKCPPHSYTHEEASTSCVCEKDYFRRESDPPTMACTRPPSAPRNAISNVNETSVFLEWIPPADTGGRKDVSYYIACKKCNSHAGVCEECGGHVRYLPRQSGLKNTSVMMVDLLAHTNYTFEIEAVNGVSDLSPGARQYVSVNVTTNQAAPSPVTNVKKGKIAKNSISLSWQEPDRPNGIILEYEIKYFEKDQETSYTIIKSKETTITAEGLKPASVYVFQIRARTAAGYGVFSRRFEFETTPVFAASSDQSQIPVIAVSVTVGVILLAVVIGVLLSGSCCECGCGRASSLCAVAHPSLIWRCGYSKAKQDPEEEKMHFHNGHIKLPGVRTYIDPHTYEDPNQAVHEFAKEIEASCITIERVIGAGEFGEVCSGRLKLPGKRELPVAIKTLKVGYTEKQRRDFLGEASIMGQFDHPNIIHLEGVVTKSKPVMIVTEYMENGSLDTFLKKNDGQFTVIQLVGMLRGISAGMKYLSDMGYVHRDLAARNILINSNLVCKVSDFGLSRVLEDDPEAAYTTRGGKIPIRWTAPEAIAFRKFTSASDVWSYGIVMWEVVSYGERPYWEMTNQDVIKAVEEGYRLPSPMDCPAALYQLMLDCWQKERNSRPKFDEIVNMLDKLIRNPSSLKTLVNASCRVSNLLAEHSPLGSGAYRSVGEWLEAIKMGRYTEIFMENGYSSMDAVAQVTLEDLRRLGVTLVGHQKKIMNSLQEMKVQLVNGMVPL

For the compound `Cn1cc(-c2nc(N[C@@H]3CCCC[C@@H]3N)c(F)c3c2C(=O)NC3)cn1` [TAK659], the IL-10 levels result in assay [1] is given as “dose-dependent reduction”.

With `C[C@]12O[C@H](C[C@]1(O)CO)n1c3ccccc3c3c4c(c5c6ccccc6n2c5c31)CNC4=O` [Lestaurtinib], the potency estimated from few doses on FRK is 751 nM; in the assay on ERCC2, 161 nM and 261 nM; on NTRK1, 772 nM; at EPHB3, 780 nM; on ULK1, 549 nM; at BUB1, 854 nM. In addition, the results for the potency estimated from few doses at AURKB and at EPHA5 were 146 nM and 255 nM, respectively.

In the case of `CCn1c(-c2nonc2N)nc2c(C#CC(C)(C)O)nc(OCCN)cc21` [GSK902056A], the “Relative Intensity 0.3nM” value on PRKACB (0.3nM compound, DMSO = 1) is recorded as 0.9369; on PRKACA (0.3nM compound, DMSO = 1), 1.008. The “Relative Intensity 1nM” value at PRKACB (1nM compound, DMSO = 1) is recorded as 1.09; on PRKACA (1nM compound, DMSO = 1) it was 0.9404. Moreover, the “Relative Intensity 3nM” value is on record as 1.112 on PRKACB (3nM compound, DMSO = 1) and 0.9819 on PRKACA (3nM compound, DMSO = 1). Moreover, the “Relative Intensity 10nM” value stood at 0.9825 at PRKACB (10nM compound, DMSO = 1) and 0.932 on PRKACA (10nM compound, DMSO = 1). In addition, the “Relative Intensity 30nM” value came out at 0.9287 at PRKACB (30nM compound, DMSO = 1) and 0.8034 on PRKACA (30nM compound, DMSO = 1). Besides, the “Relative Intensity 100nM” value on PRKACB (100nM compound, DMSO = 1) is recorded as 0.758; on PRKACA (100nM compound, DMSO = 1) it was 0.7942. Further, the “Relative Intensity 300nM” value on PRKACB (300nM compound, DMSO = 1) amounted to 0.7526; at PRKACA (300nM compound, DMSO = 1), 0.6618. Also, the “Relative Intensity 1000nM” value at PRKACB (1000nM compound, DMSO = 1) came to 0.5592; at PRKACA (1000nM compound, DMSO = 1), 0.5702. The Kd is 145 nM at PRKACB (setting [2]) and 212 nM on PRKACA (setting [2]). Further, the EC50 at PRKACB (setting [3]) was 145 nM; on PRKACA (setting [3]), 230 nM.

Values taken from publication PMC11062922 (Nature Chemical Biology, 2023).
